Test results taken from PubChem BioAssay AID1963982 (Molecular Pharmacology Branch, DTP, NCI, 2024).

System: 313798-341-R-J2-PDC spheroids, viability
Assay: Anticancer human tumor 313798-341-R-J2-PDC patient-derived cervical squamous cell carcinoma cell line growth inhibition [PI3K]
Details: spheroids with HUVEC and MSC; for IC50: curve of first compound; for viability, T/C: stronger effect = lower value
From the text: Combinatorial screen of targeted agents with the PI3K inhibitors inavolisib, alpelisib, duvelisib, and copanlisib in multi-cell type tumor spheroids
A high-throughput screen of multi-cell type tumor spheroids was designed to identify active combinations of targeted small molecules and PI3K pathway inhibitors. Complex spheroids include a stromal component modeled by human endothelial cells (HUVEC) and fibroblasts modeled by human mesenchymal stem cells (MSCs). The concentration ranges selected for each drug and investigational agent were based upon clinically achievable concentrations if the clinical Cmax of the agent was known.
Compounds. The drugs and investigational agents: inavolisib (NSC800729), alpelisib (NSC765974), duvelisib (NSC772469), copanlisib (NSC816437), ipatasertib (NSC767898), afuresertib (NSC778305), talazoparib (NSC767125), sapanisertib (NSC764658), selumetinib (NSC741078), tovorafenib (DAY101, NSC766906), vemurafenib (NSC761431), ravoxertinib (NSC781343), sotorasib (NSC818433), MRTX1133 (NSC 836407), abemaciclib (NSC 768073), palbociclib (NSC758247), venetoclax (NSC 766270), SY5609 (NSC837396), enzalutamide (NSC755605), and darolutamide (NSC825331), were obtained from the National Cancer Institute (NCI) Developmental Therapeutics Program Chemical Repository. The FDA-approved anticancer drug set is available from the NCI Developmental Therapeutics Program. […] The stock solutions were prepared in dimethyl sulfoxide (DMSO, Sigma-Aldrich, St. Louis, MO, cat. D2650) at 800-fold the tested concentration and stored at -70 degrees C prior to their use. All drugs and investigational agents were tested over a range starting from a high concentration at or near the clinical Cmax and decreasing in half-log increments. If the clinical Cmax for an agent had not been determined, the highest concentration tested was 10 microM.
Cell Culture. All cells were maintained in an incubator at 37 degrees C and 5% CO2 with 95% humidity. The PDC lines were cultured according to standard operating procedures established by the NCI PDMR (https://pdmr.cancer.gov/sops/default.htm). All PDCs were thawed and cultured in Matrigel-coated flasks prepared with a working solution of 1X Ham's F-12 nutrient mix, without supplementation (Invitrogen, Waltham, MA, cat. 11765054), 100 U/mL penicillin-streptomycin (Invitrogen, cat. 15140122), and 2.5% Matrigel (Corning Inc., Corning, NY, cat. 354248) for the first three passages. The 354836-022-R-J1-PDC, 475296-252-R-J1-PDC, and 997726-040-R-J2-PDC lines were cultured in 6A media, which includes advanced DMEM/F-12 (Thermo Fisher Scientific, cat. 12634028), 10 mM HEPES (Thermo Fisher Scientific, cat. 15630080), 1X GlutaMAX supplement (Thermo Fisher Scientific, cat. 35050061), 0.1 mg/mL primocin (InvivoGen, San Diego, CA, cat. ant-pm-2), 10% defined fetal bovine serum, heat inactivated (HyClone Laboratories Inc., Logan, UT, cat. SH30070.03HI), 50% L-WRN conditioned media (ATCC, cat. CRL-3276), 1.25 mM N-Acetyl-L-cysteine (Sigma-Aldrich, cat. A9165), 10 mM nicotinamide (Sigma-Aldrich, cat. N0636), 1X B-27 supplement (Thermo Fisher Scientific, cat. 17504044), 1X N-2 supplement (Thermo Fisher Scientific, cat. 17502048), and 10 microM Y-27632 dihydrochloride (Tocris Bioscience, Bristol, United Kingdom, cat. 1254). The 624824-186-R-J2-PDC line was cultured in 6C/Colon 1B media, which includes all 6A media components plus 50 ng/mL human EGF recombinant protein (Thermo Fisher Scientific, cat. PHG0311). […]
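Also: spheroids exposed to compounds for seven days.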
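For viability, T/C in this document: 100% = DMSO vehicle control viability.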

With `CC1(C)CCC(CN2CCN(c3ccc(C(=O)NS(=O)(=O)c4ccc(NCC5CCOCC5)c([N+](=O)[O-])c4)c(Oc4cnc5[nH]ccc5c4)c3)CC2)=C(c2ccc(Cl)cc2)C1` + CC(Nc1ccc2c(c1)OCCn1cc(N3C(=O)OCC3C(F)F)nc1-2)C(N)=O as the compound, how does the IC50 (second compound 0.00316 µM) read?
The IC50 was 5.51 µM.

What about the IC50 (second compound 0.01 µM) of the same compound?
The IC50 was 5.66 µM.

What about the IC50 (second compound 0.0316 µM) of the same compound?
The IC50 was 5.41 µM.

And the IC50 (second compound 0.1 µM)?
The IC50 was 4.71 µM.

And the IC50 (second compound 0.316 µM)?
The IC50 was 2.19 µM.

And the IC50 (second compound 1 µM)?
The IC50 was 0.609 µM.

What about the viability, T/C (second compound 0.00316 µM, first compound 0.0316 µM) of the same compound?
The viability, T/C was 93.1%.

And the viability, T/C (second compound 0.00316 µM, first compound 0.1 µM)?
Its viability, T/C is 92.4%.

And the viability, T/C (second compound 0.00316 µM, first compound 0.316 µM)?
The viability, T/C was 95.5%.

And the viability, T/C (second compound 0.00316 µM, first compound 1 µM)?
Its viability, T/C is 89.4%.

What about the viability, T/C (second compound 0.00316 µM, first compound 3.16 µM) of the same compound?
Its viability, T/C is 81.3%.

What about the viability, T/C (second compound 0.00316 µM, first compound 10 µM) of the same compound?
The viability, T/C was 16.9%.

What about the viability, T/C (second compound 0.01 µM, first compound 0.0316 µM) of the same compound?
The viability, T/C was 100%.

What about the viability, T/C (second compound 0.01 µM, first compound 0.1 µM) of the same compound?
Its viability, T/C is 93.2%.

What about the viability, T/C (second compound 0.01 µM, first compound 0.316 µM) of the same compound?
The viability, T/C was 98.5%.

What about the viability, T/C (second compound 0.01 µM, first compound 1 µM) of the same compound?
The viability, T/C was 90.7%.

What about the viability, T/C (second compound 0.01 µM, first compound 3.16 µM) of the same compound?
Its viability, T/C is 84.2%.

What about the viability, T/C (second compound 0.01 µM, first compound 10 µM) of the same compound?
Its viability, T/C is 16.5%.

What about the viability, T/C (second compound 0.0316 µM, first compound 0.0316 µM) of the same compound?
The viability, T/C was 92.6%.

And the viability, T/C (second compound 0.0316 µM, first compound 0.1 µM)?
Its viability, T/C is 86.3%.

And the viability, T/C (second compound 0.0316 µM, first compound 0.316 µM)?
Its viability, T/C is 89.5%.

What about the viability, T/C (second compound 0.0316 µM, first compound 1 µM) of the same compound?
The viability, T/C was 93.2%.

What about the viability, T/C (second compound 0.0316 µM, first compound 3.16 µM) of the same compound?
Its viability, T/C is 78.3%.

And the viability, T/C (second compound 0.0316 µM, first compound 10 µM)?
Its viability, T/C is 17%.

What about the viability, T/C (second compound 0.1 µM, first compound 0.0316 µM) of the same compound?
The viability, T/C was 94.1%.

And the viability, T/C (second compound 0.1 µM, first compound 0.1 µM)?
The viability, T/C was 102%.

What about the viability, T/C (second compound 0.1 µM, first compound 0.316 µM) of the same compound?
The viability, T/C was 90.4%.

What about the viability, T/C (second compound 0.1 µM, first compound 1 µM) of the same compound?
Its viability, T/C is 90.9%.

What about the viability, T/C (second compound 0.1 µM, first compound 3.16 µM) of the same compound?
Its viability, T/C is 67.2%.

And the viability, T/C (second compound 0.1 µM, first compound 10 µM)?
The viability, T/C was 17%.

And the viability, T/C (second compound 0.316 µM, first compound 0.0316 µM)?
Its viability, T/C is 79.7%.

What about the viability, T/C (second compound 0.316 µM, first compound 0.1 µM) of the same compound?
Its viability, T/C is 69.7%.

And the viability, T/C (second compound 0.316 µM, first compound 0.316 µM)?
Its viability, T/C is 78.2%.

What about the viability, T/C (second compound 0.316 µM, first compound 1 µM) of the same compound?
The viability, T/C was 60.1%.

What about the viability, T/C (second compound 0.316 µM, first compound 3.16 µM) of the same compound?
The viability, T/C was 44.8%.

And the viability, T/C (second compound 0.316 µM, first compound 10 µM)?
The viability, T/C was 16.5%.

And the viability, T/C (second compound 1 µM, first compound 0.0316 µM)?
The viability, T/C was 51.6%.

And the viability, T/C (second compound 1 µM, first compound 0.1 µM)?
The viability, T/C was 49.7%.

And the viability, T/C (second compound 1 µM, first compound 0.316 µM)?
The viability, T/C was 51.8%.

What about the viability, T/C (second compound 1 µM, first compound 1 µM) of the same compound?
Its viability, T/C is 49.2%.

And the viability, T/C (second compound 1 µM, first compound 3.16 µM)?
Its viability, T/C is 35.8%.

What about the viability, T/C (second compound 1 µM, first compound 10 µM) of the same compound?
Its viability, T/C is 14%.
